This is an account of results in patent publication US7186862B2, “Microbicidal agents on the basis of biphenylbenzamide derivatives” (Bayer CropScience AG, priority 2002, dated 2007).

Structures are written as SMILES.

One series has as its system Sphaerotheca fuliginea. Briefly: Sphaerotheca test (cucumber)/protective. The class given is in vivo. As to conditions: Podosphaera fuliginea, 168 h; application rate 100 g/ha; cucumber plants, protective spray; evaluation 7 days after inoculation; 100% = no infection; read-out: Efficacy in %. On the procedure: (§1) [table] To produce a suitable preparation of active compound, 1 part by weight of active compound is mixed with the stated amounts of solvent and emulsifier, and the concentrate is diluted with water to the desired concentration. To test for protective activity, young plants are sprayed with the preparation of active compound at the stated application rate. After the spray coating has dried on, the plants are inoculated with an aqueous spore suspension of Sphaerotheca fuliginea. The plants are then placed in a greenhouse at about 23° C. and a relative atmospheric humidity of about 70%. Evaluation is carried out 7 days after the inoculation. 0% means an efficacy which corresponds to that of the control, whereas an efficacy of 100% means that no infection is observed.

Another series relates to Venturia inaequalis. Briefly: Venturia test (apple)/protective. The class given is in vivo. Particulars: 240 h, application rate 100 g/ha, apple plants, protective spray, evaluation 10 days after inoculation, 100% = no infection, read-out: Efficacy in %. On the procedure: as §1, with “conidia” for “spore”, “the apple scab pathogen Venturia inaequalis and then remain in an incubation cabin at about 20° C. and 100% relative atmospheric humidity for 1 day.” for “Sphaerotheca fuliginea.”, “21°” for “23°”, “90%.” for “70%.”, “10” for “7”

For another series, the system named is Pyrenophora teres. Briefly: Pyrenophora teres test (barley)/protective. The class given is in vivo. As to conditions: application rate 500 g/ha; barley plants, protective spray. As to the method: [table] To produce a suitable preparation of active compound, 1 part by weight of active compound is mixed with the stated amounts of solvent and emulsifier, and the concentrate is diluted with water to the desired concentration. To test for protective activity, young plants are sprayed with the preparation of active compound at the stated application rate. After the spray coating has dried on, the plants are sprayed with a conidia suspension of Pyrenophora teres. The plants remain in an incubation cabin at 20° C. and 100% relative atmospheric humidity for 48 hours. The plants are then placed in a greenhouse at about 20° C. and a relative atmospheric humidity of about 80%.

In a further series the test system is Podosphaera leucotricha. Briefly: Podosphaera test (apple)/protective. Particulars: 240 h, application rate 100 g/ha, apple plants, protective spray, evaluation 10 days after inoculation, 100% = no infection, read-out: Efficacy in %. The class given is in vivo. On the procedure: as §1, with “suspension of the apple mildew pathogen Podosphaera leucotricha. The plants” for “suspension of Sphaerotheca fuliginea. The plants”, “carried out 10 days after” for “carried out 7 days after”

Series [1] is described as follows: logP determination by HPLC on reversed-phase column (EEC Directive 79/831). The class given is physicochemical. As to conditions: reversed-phase HPLC column (C18), pH 2.3, reversed-phase C18, 43° C., 0.1% aqueous phosphoric acid/acetonitrile gradient. As to the method:
The logP values given in the tables and preparation examples above are determined in accordance with EEC Directive 79/831 Annex V.48 by HPLC (High Performance Liquid Chromatography) on a reversed-phase column (C18). Temperature: 43° C. The determination is carried out in the acidic range at pH 2.3 using the mobile phases 0.1% aqueous phosphoric acid and acetonitrile; linear gradient from 10% acetonitrile to 90% acetonitrile. Calibration is carried out using unbranched […] (of 3 to 16 carbon atoms) with known logP values (determination of the logP values by the retention time using linear interpolation between two successive alkanones).

For another series, the system named is Alternaria solani. Briefly: Alternaria test (tomato)/protective. The class given is in vivo. As to conditions: application rate 750 g/ha; tomato plants, protective spray, inoculation 1 day after treatment; evaluation 7 days after inoculation; 100% = no infection. On the procedure:
[table] To produce a suitable p reparation of active compound, 1 part by weight of active compound is mixed with the stated amounts of solvent and emulsifier, and the concentrate is diluted with water to the desired concentration. To test for protective activity, young tomato plants are sprayed with the preparation of active compound at the stated application rate. 1 day after the treatment, the plants are inoculated with a spore suspension of Alternaria solani and are then kept at 100% relative atmospheric humidity and 20° C. for 24 h. The plants are then kept at 96% relative atmospheric humidity and a temperature of 20° C. Evaluation is carried out 7 days after the inoculation. 0% means an efficacy which corresponds to that of the control, whereas an efficacy of 100% means that no infection is observed.

In the case of `O=C(Nc1ccccc1-c1ccc(Cl)c(Cl)c1)c1ccccc1C(F)(F)F` [Compound 4], the pest or weed control at 100 g/ha in the series on Sphaerotheca fuliginea, in the series on Venturia inaequalis and in the series with Podosphaera leucotricha was 100% throughout. For the same molecule, in the series on Pyrenophora teres, the Efficacy in % stood at 100%. Also, the chromatographic logP (in general, lipophilicity estimated from chromatographic retention) in series [1] came out at 4.13.

On to `O=C(Nc1ccccc1-c1cccc(Cl)c1)c1ccccc1C(F)(F)F` [Compound 7], for which the pest or weed control at 100 g/ha in the series on Sphaerotheca fuliginea, with Venturia inaequalis and in the series on Podosphaera leucotricha was 100% in each case. Further, the results for the Efficacy in % in the series with Alternaria solani and with Pyrenophora teres were 94% and 90%, respectively. Further, in series [1], the chromatographic logP turned out to be 3.86.

Regarding `O=C(Nc1ccccc1-c1ccc(Br)cc1)c1ccccc1Cl` [Compound 10], the Efficacy in % in the series with Alternaria solani is 92%. In series [1], this molecule came in with a chromatographic logP of 3.89.

On to `O=C(Nc1ccccc1-c1cccc(Cl)c1)c1ccccc1Br` [Compound 18], for which the Efficacy in % with Alternaria solani is 100%. Besides, in series [1], the chromatographic logP was 3.78.

For the molecule `O=C(Nc1ccccc1-c1ccc(F)c(F)c1)c1ccccc1C(F)(F)F` [Compound 33], the pest or weed control at 100 g/ha worked out at 82% in the series on Sphaerotheca fuliginea, 100% with Venturia inaequalis and 100% with Podosphaera leucotricha. In the series with Alternaria solani, this molecule yielded an Efficacy in % of 94%. The molecule further displayed a chromatographic logP in series [1] of 3.55.
